Measured values as given in article PMC8876625 (Pharmaceuticals, 2022).
Structures can show the parent of a compound that is named as a salt.

How the values were obtained:
[1] = Static permeation study without lung cells (control, porous membrane only); format: in vitro ADME; settings: not told, control without lung cell barrier (porous membrane 0.4 µm, 0.6 cm^2), 100 µM apical, model parameter estimate, read-out: P12, apparent permeability from the apical to the basolateral compartment and vice versa (converted)
Protocol: The cells were cultivated in a 24-well plate (662160, Greiner bio-one, Frickenhausen, Germany) at 37 °C for five days under a physiological pH in the range of 7.0-7.4 with one CCM exchange after two days. […] The basolateral compartment was filled with fresh CCM. After model substance exposure, total apical, and basolateral CCM were collected each in a 1.5 mL tube (Kisker Biotech GmbH & Co. […] For each time point, a separate cell culture insert was used. Samples were then stored at 4 °C until further analysis via HPLC. […] After the static and fluidic permeation studies, the model substances in the apical and basolateral CCM were quantified via HPLC measurements as described in Elberskirch et al.. […] Separation was performed using a Poroshell 120 EC-C18 column (2.1 × 100 mm, 2.7 μm; 695775-902, Agilent Technologies) connected to a guard column (Poroshell 120 EC-C18, 2.1 × 5 mm, 2.7 μm, Agilent Technologies). The mobile phase consisted of three running agents: water (solvent A; sterile filtered 0.2 μm pore), acetonitrile (Solvent B; J.T. Baker), and 0.1% trifluoroacetic acid (TFA) in water (Solvent C; Fisher Scientific). The flow rate was set to 0.4 mL/min with 5 μL of the sample injected. […] For detection, a diode array detector (DAD) was used at a wavelength of 275 nm. […]

[2] = Fluidic permeation study (QuasiVivo QV600) with 16HBE cell barrier; format: in vitro ADME; settings: human; fluidic cell experiment, 200 µL/min; static P12 multiplied by factor F; read-out: P16, apparent permeability between the apical and basolateral chambers in the fluidic system (converted)
Protocol: Fluidic permeation studies were performed in the MCmB QuasiVivo® […]), which was assembled according to the manufacturer's instructions. An apical and basolateral flow with a flow rate of 200 μL/min was used (Figure 7b). […] The apical circuit consisted of the apical reservoir bottle, the apical part of the pulmonary chamber, the pump, a three-way cock (B.Braun 4095111; dosing/sampling port; in order of medium flow), and connecting tubes. The basolateral circuit comprised the basolateral reservoir bottle, the basolateral part of the pulmonary chamber, a second chamber allowing the integration of additional cell tissues, the pump, the basolateral sampling port (in order of medium flow), and connecting tubes (Figure 8). Different tubing ([…]-2 Tubing set; […] VWR 228-1066, Radnor, PA, USA) was used to establish the optimal connection between the reservoir bottles, cell chambers, pump, and sampling ports. For the in vitro cell permeation studies, 4.3 × 10^4 16HBE cells were seeded in a cell culture insert with a pore size of 0.4 μm and a growth area of 0.6 cm^2 (PIHP 012 50, Merck Millipore) and cultivated at 37 °C for five days. […] After the static and fluidic permeation studies, the model substances in the apical and basolateral CCM were quantified via HPLC measurements as described in Elberskirch et al.. […]

[3] = Static permeation study with 16HBE cell monolayer on porous membrane; format: in vitro ADME, human; settings: human; static, with 16HBE lung cell barrier, 100 µM apical, 72 h, model parameter estimate; read-out: P12, apparent permeability from the apical to the basolateral compartment and vice versa (converted)
Protocol: (§1) The bronchial cell line 16HBE was cultivated in Dulbecco's modified Eagle medium (DMEM/F12 with L-glutamine and HEPES; Gibco 11039-021, Thermo Fisher Scientific, Waltham, MA, USA), supplemented with 10% fetal bovine serum (FBS, […][…], Sigma Aldrich, St. Louis, MO, USA), 100 U/mL penicillin, and 100 μg/mL streptomycin (Gibco 15140-122, Thermo Fisher Scientific). The cells were cultivated in a humidified atmosphere at 37 °C and 5% CO2. The bronchial cell line 16HBE was obtained from Dr. […] (Cardiovascular Research Institute, University of California). […] The cells were cultivated in a 24-well plate (662160, Greiner bio-one, Frickenhausen, Germany) at 37 °C for five days under a physiological pH in the range of 7.0-7.4 with one CCM exchange after two days. […] The basolateral compartment was filled with fresh CCM. After model substance exposure, total apical, and basolateral CCM were collected each in a 1.5 mL tube ([…] Biotech GmbH & Co. […] For each time point, a separate cell culture insert was used. Samples were then stored at 4 °C until further analysis via HPLC. After the static and fluidic permeation studies, the model substances in the apical and basolateral CCM were quantified via HPLC measurements as described in […] et al.. […] The mobile phase consisted of three running agents: water (solvent A; sterile filtered 0.2 μm pore), acetonitrile (Solvent B; J.T. Baker), and 0.1% trifluoroacetic acid (TFA) in water (Solvent C; Fisher Scientific). The flow rate was set to 0.4 mL/min with 5 μL of the sample injected. […] For detection, a diode array detector (DAD) was used at a wavelength of 275 nm. To model the static in vitro permeation experiments (control and cell experiments), a bidirectional single-barrier model was implemented as a two-compartment ODE system. […] Thereby, […],i reflects the compound permeability through all present permeation barriers in the respective experimental setup, such as unstirred water layers, the porous filter membrane, and cell monolayer (apparent permeability). […] During parameter estimation in the static permeation study, permeability parameters ([…],i) were estimated by fitting the model-simulated concentrations to the observed experimental data via first-order conditional estimation method with interaction (FOCE-I) in […]®, using a combined proportional and additive residual error model (Equation (6)).

[4] = system: 16HBE cells; assay: as above; format: in vitro ADME, human; settings: for potential metabolism in the pulmonary epithelial cells: static cellular experiments, from mass balance; for active transport in 16HBE cells: static cellular study, equilibrium with similar apical and basolateral concentrations
Protocol: as §1

[5] = system: human bronchial epithelial cell line Calu-3; set-up: method as in earlier work; settings: Calu-3 cells; ref 5 (Mathias et al.); cited from earlier work
[6] = cited from earlier work

Structure (SMILES) | Papp A→B at 72 h, 100 µM [1] | Papp at 72 h, 100 µM [2] | Papp A→B at 72 h, 100 µM [3] | potential metabolism in the pulmonary epithelial cells [4] | active transport in 16HBE cells [4] | apparent permeability (published value) [5] | logP [6]
Cn1c(=O)c2c(ncn2C)n(C)c1=O [caffeine] | 54.5 ×10⁻⁶ cm/s | 14.9 ×10⁻⁶ cm/s | 43.7 ×10⁻⁶ cm/s | negligible | neither caffeine nor diclofenac were subject to active transport | 21.8 ×10⁻⁶ cm/s | 
O=C(O)Cc1ccccc1Nc1c(Cl)cccc1Cl [diclofenac, diclofenac sodium salt] | 41.8 ×10⁻⁶ cm/s | 3.92 ×10⁻⁶ cm/s | 23 ×10⁻⁶ cm/s | negligible | neither caffeine nor diclofenac were subject to active transport |  | ~ 4
